Data taken from PMC10244465, “Native American ataxia medicines rescue ataxia-linked mutant potassium channel activity via binding to the voltage sensing domain” (Nature Communications, 2023).
Read-outs that look alike come from different tables or passages of the source.

Key:
Format in all cases: cell-based
[1] = target: T1, Kv1.1/Kv1.1-L155P channels (Homo sapiens, UniProt Q09470, L155P); assay: TEVC of oocytes co-injected with 50/50 wild-type/L155P Kv1.1 cRNA
T1 construct: expressed in transfected cells; host or cells: Xenopus laevis oocytes co-injected with 50/50 wild-type/L155P cRNA
Source text: As previously described[24], we generated cRNA transcripts encoding human Kv1.1 (wild-type and mutant) and Kv1.2, by in vitro transcription using the mMessage mMachine kit (Thermo Fisher Scientific), after vector linearization, from cDNA sub-cloned into plasmids (pTLNx) incorporating Xenopus laevis β-globin 5’ and 3’ UTRs flanking the coding region to enhance translation and cRNA stability. We injected defolliculated stage V and VI Xenopus laevis oocytes (Xenoocyte, Dexter, MI, US) with Kv1 cRNAs (1–5 ng). We incubated the oocytes at 16 °C in ND96 oocyte storage solution containing penicillin and streptomycin, with daily washing, for 2 days prior to two-electrode voltage-clamp (TEVC) recording.
(§1) We performed TEVC at room temperature using an OC-725C amplifier (Warner Instruments, Hamden, CT) and pClamp10 software (Molecular Devices, Sunnyvale, CA) 2 days after cRNA injection as described in the section above. For recording, oocytes we placed in a small-volume oocyte bath (Warner) and viewed with a dissection microscope. We sourced chemicals from Sigma. We studied effects of plant extracts and of compounds, solubilized directly in bath solution (in mM): 96 NaCl, 4 KCl, 1 MgCl2, 1 CaCl2, 10 HEPES (pH 7.6). We introduced extracts or compounds into the oocyte recording bath by gravity perfusion at a constant flow of 1 ml per minute for 3 min prior to recording. Pipettes were of 1–2 MΩ resistance when filled with 3 M KCl. We recorded currents in response to voltage pulses between −80 mV and +40 mV at 10 or 20 mV intervals from a holding potential of −80 mV, to yield current-voltage relationships and examine activation kinetics. To calculate the voltage dependence of activation (V0.5), tail currents were recorded at a voltage pulse of −50 mV immediately following prepulse voltages between −80 mV and +40 mV. We analyzed data using Clampfit (Molecular Devices) and Graphpad Prism software (GraphPad, San Diego, CA, USA), stating values as mean ± SEM. We plotted raw or normalized tail currents vs. prepulse voltage and fitted with a single Boltzmann function:1 g=(A1−A2)/1+exp[V1/2−V/Vs]y+A2 where g is the normalized tail conductance, A1 is the initial value at -∞, A2 is the final value at +∞, V1/2 is the half-maximal voltage of activation and Vs the slope factor.

[2] = target: T2, Kv1.1/Kv1.1-G311D channels (Homo sapiens, UniProt Q09470, G311D); assay: TEVC of oocytes co-injected with 50/50 wild-type/G311D Kv1.1 cRNA; conditions: for effect on channel activity: compound 1 µM
T2 construct: expressed in transfected cells; host or cells: Xenopus laevis oocytes co-injected with 50/50 wild-type/mutant cRNA
Method: We next tested effects on channels generated by co-injection of 50/50 wild-type/mutant Kv1.1 cRNA. Strikingly, gallic acid (1 µM) was able to hyperpolarize (by −15.5 ± 0.5 mV; n = 4; P < 0.0001) the V0.5 act of Kv1.1/Kv1.1-E283K channels, restoring voltage dependence typical of wild-type Kv1.1 (Fig. 7a–c), also inducing a −14 ± 0.7 mV hyperpolarization (n = 4; P = 0.0005) in EM of oocytes expressing Kv1.1/Kv1.1-E283K (Fig. 7d). […] Because of this hint at activity improvement in L155P channels we also applied higher concentrations (10 and 100 µM) of gallic acid, which produced a more robust (−12.5 ± 0.6 mV and −14.1 ± 0.6 mV, respectively) hyperpolarization of Kv1.1/Kv1.1-L155P V0.5 act (Fig. 8b, c) and hyperpolarized EM by −14.0 ± 0.6 mV and −15.2 ± 0.7 mV, respectively (Fig. 8d).
Wild-type and mutant Kv1 cDNAs were generated (Genscript, Piscataway, NJ) in the pTLNx expression vector. As previously described, we generated cRNA transcripts encoding human Kv1.1 (wild-type and mutant) and Kv1.2, by in vitro transcription using the mMessage mMachine kit (Thermo Fisher Scientific), after vector linearization, from cDNA sub-cloned into plasmids (pTLNx) incorporating Xenopus laevis β-globin 5’ and 3’ UTRs flanking the coding region to enhance translation and cRNA stability. […]
We performed TEVC at room temperature using an OC-725C amplifier (Warner Instruments, Hamden, CT) and pClamp10 software (Molecular Devices, Sunnyvale, CA) 2 days after cRNA injection as described in the section above. […] We recorded currents in response to voltage pulses between −80 mV and +40 mV at 10 or 20 mV intervals from a holding potential of −80 mV, to yield current-voltage relationships and examine activation kinetics. To calculate the voltage dependence of activation (V0.5), tail currents were recorded at a voltage pulse of −50 mV immediately following prepulse voltages between −80 mV and +40 mV. We analyzed data using Clampfit (Molecular Devices) and Graphpad Prism software (GraphPad, San Diego, CA, USA), stating values as mean ± SEM. […]

[3] = target: T3, Kv1.1-E283K channels (Homo sapiens, UniProt Q09470, E283K); assay: TEVC of oocytes injected with 100% Kv1.1-E283K cRNA; conditions: for EC50: biphasic dose response
T3 construct: expressed in transfected cells; host or cells: Xenopus laevis oocytes
Method: We injected defolliculated stage V and VI Xenopus laevis oocytes (Xenoocyte, Dexter, MI, US) with Kv1 cRNAs (1–5 ng). We incubated the oocytes at 16 °C in ND96 oocyte storage solution containing penicillin and streptomycin, with daily washing, for 2 days prior to two-electrode voltage-clamp (TEVC) recording.
as §1

[4] = -20 mV, Figure 6 table, head 1 µM Tannic acid, footnote bladderwrack kelp

T1 sequence (Q09470 whole entry, stated change not applied): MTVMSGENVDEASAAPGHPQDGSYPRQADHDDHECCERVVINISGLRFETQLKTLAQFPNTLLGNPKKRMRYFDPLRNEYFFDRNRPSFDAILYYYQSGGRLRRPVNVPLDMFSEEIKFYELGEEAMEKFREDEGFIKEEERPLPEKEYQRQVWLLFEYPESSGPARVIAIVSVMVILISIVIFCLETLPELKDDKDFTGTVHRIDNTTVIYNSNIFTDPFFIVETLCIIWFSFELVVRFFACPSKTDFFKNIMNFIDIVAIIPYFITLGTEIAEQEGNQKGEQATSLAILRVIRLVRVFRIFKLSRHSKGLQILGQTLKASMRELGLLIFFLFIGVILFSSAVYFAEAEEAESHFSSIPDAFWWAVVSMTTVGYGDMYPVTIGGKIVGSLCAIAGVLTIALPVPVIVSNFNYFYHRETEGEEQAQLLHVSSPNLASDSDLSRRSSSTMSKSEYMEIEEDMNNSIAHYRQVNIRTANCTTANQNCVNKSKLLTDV
T1 sequence (Q09470 whole entry L155P): as the sequence (Q09470 whole entry, stated change not applied) above, with L155P counted along it
T2 sequence (Q09470 whole entry, stated change not applied): as the sequence (Q09470 whole entry, stated change not applied) above
T2 sequence (Q09470 whole entry G311D): as the sequence (Q09470 whole entry, stated change not applied) above, with G311D counted along it
T3 sequence (Q09470 whole entry E283K): as the sequence (Q09470 whole entry, stated change not applied) above, with E283K counted along it

Compound: O=C(O)c1cc(O)c(O)c(O)c1 [gallic acid]
- hyperpolarization of EM ([1]; 1 µM): –9.1 ± 0.8 mV
- shift in the voltage dependence of activation (V0.5 act) ([1]; 1 µM): −6.8 ± 0.6 mV
- hyperpolarization of EM ([1]; 10 µM): −14.0 ± 0.6 mV
- shift in the voltage dependence of activation (V0.5 act) ([1]; 10 µM): −12.5 ± 0.6 mV
- hyperpolarization of EM ([1]; 100 µM): −15.2 ± 0.7 mV
- shift in the voltage dependence of activation (V0.5 act) ([1]; 100 µM): −14.1 ± 0.6 mV
- EM ([1]; in presence of 1 µM compound): -45.00 ± 0.78 mV
- Slope ([1]; in presence of 1 µM compound): 4.84 ± 0.56 mV
- V0.5 Normalized tail current ([1]; in presence of 1 µM compound): -30.59 ± 0.60 mV
- EM ([1]; in presence of 10 µM compound): -48.89 ± 0.66 mV
- Slope ([1]; in presence of 10 µM compound): 4.76 ± 0.51 mV
- V0.5 Normalized tail current ([1]; in presence of 10 µM compound): -36.38 ± 0.62 mV
- EM ([1]; in presence of 100 µM compound): -50.11 ± 0.69 mV
- Slope ([1]; in presence of 100 µM compound): 4.68 ± 0.55 mV
- V0.5 Normalized tail current ([1]; in presence of 100 µM compound): -37.93 ± 0.62 mV
- effect on channel activity [2]: negligible
- EM ([2]; in presence of 1 µM compound): -47.00 ± 2.56 mV
- effect on channel activity ([3]; compound 1 µM): only very minor functional improvements

Compound: tannic acid
- effect on channel activity ([1]; compound 1 µM): minimal
- effect on channel activity [2]: minimal
- TauAct ([3]; 0 mV, 1 µM, Figure 9 table): 15.70 ± 1.40 ms
- TauAct ([3]; 0 mV, Figure 6 table, head 1 µM Tannic acid, footnote bladderwrack kelp): 21.12 ± 4.35 ms
- Peak current at -40 mV ([3]; 0.1 µM): 0.02 ± 0.01 µA
- Peak current at -40 mV ([3]; 1 µM): 0.02 ± 0.01 µA
- shift in the EM ([3]; 1 µM): ~−20 mV
- shift of V0.5 activation ([3]; 1 µM): −13 ± 0.26 mV
- Current-fold change -30 mV ([3]; 1 µM compound): 4.69 ± 1.69
- increase of activity ([3]; 1 µM, at −40 to −20 mV): ≤ 20 fold
- Peak current at -40 mV ([3]; 10 µM): 0.02 ± 0.01 µA
- Peak current at -40 mV ([3]; 30 µM): 0.02 ± 0.01 µA
- Peak current at -40 mV ([3]; 100 µM): 0.03 ± 0.01 µA
- TauAct ([3]; +10 mV, 1 µM, Figure 9 table): 12.94 ± 1.05 ms
- TauAct ([3]; +10 mV, Figure 6 table, head 1 µM Tannic acid, footnote bladderwrack kelp): 17.43 ± 3.97 ms
- TauAct ([3]; +20 mV, 1 µM, Figure 9 table): 11.30 ± 0.89 ms
- TauAct ([3]; +20 mV, Figure 6 table, head 1 µM Tannic acid, footnote bladderwrack kelp): 12.72 ± 2.85 ms
- TauAct ([3]; +30 mV, 1 µM, Figure 9 table): 10.16 ± 0.83 ms
- TauAct ([3]; +30 mV, Figure 6 table, head 1 µM Tannic acid, footnote bladderwrack kelp): 10.63 ± 2.79 ms
- TauAct ([3]; +40 mV, 1 µM, Figure 9 table): 9.46 ± 0.83 ms
- TauAct ([3]; +40 mV, Figure 6 table, head 1 µM Tannic acid, footnote bladderwrack kelp): 10.04 ± 2.65 ms
- TauAct ([3]; -10 mV, 1 µM, Figure 9 table): 20.71 ± 2.35 ms
- TauAct ([3]; -10 mV, Figure 6 table, head 1 µM Tannic acid, footnote bladderwrack kelp): 27.06 ± 7.08 ms
- TauAct ([3]; -20 mV, 1 µM, Figure 9 table): 31.31 ± 2.98 ms
- TauAct [3, 4]: 41.32 ± 8.47 ms
- TauDeact [3, 4]: 0.87 ± 0.36 ms
- TauDeact ([3]; -30 mV, Figure 6 table, head 1 µM Tannic acid, footnote bladderwrack kelp): 0.79 ± 0.32 ms
- TauDeact ([3]; -40 mV, Figure 6 table, head 1 µM Tannic acid, footnote bladderwrack kelp): 0.88 ± 0.36 ms
- TauDeact ([3]; -50 mV, Figure 6 table, head 1 µM Tannic acid, footnote bladderwrack kelp): 1.04 ± 0.44 ms
- TauDeact ([3]; -60 mV, Figure 6 table, head 1 µM Tannic acid, footnote bladderwrack kelp): 1.23 ± 0.52 ms
- TauDeact ([3]; -70 mV, Figure 6 table, head 1 µM Tannic acid, footnote bladderwrack kelp): 1.38 ± 0.56 ms
- TauDeact ([3]; -80 mV, Figure 6 table, head 1 µM Tannic acid, footnote bladderwrack kelp): 1.50 ± 0.57 ms
- EC50 ([3]; read-out: EC50 for effects on EM, first component): 1.1 ± 0.9 nM
- EC50 ([3]; read-out: EC50 for effects on EM, second component): 10000 ± 400 nM
- EC50 ([3]; from the increase in relative tail current at −40 mV, read-out: EC50, higher sensitivity component): 3.7 ± 2.6 nM
- EM ([3]; in presence of 1 µM compound): -44.83 ± 0.14 mV
- Slope ([3]; in presence of 1 µM compound): 8.70 ± 1.19 mV
- V0.5 Normalized tail current ([3]; in presence of 1 µM compound): -22.75 ± 1.34 mV
